According to publication PMC7566913, “Dual Gene Delivery Reagents From Antiproliferative Alkylphospholipids for Combined Antitumor Therapy” (Frontiers in Chemistry, 2020):
Read-outs that look alike come from different tables or passages of the source.

Legend:
A549 cells [1] = assay: Antiproliferative effect of pUNO1-hTRAIL vs pCMV-Gluc lipoplexes, MTT, A549; format: cell-based, human; details: N/P 3, 1 eq. DOPE, pDNA 0.3 and 0.4 μg/well
Method: Cells were treated with lipoplexes prepared from pro-APLs ME12, PE12, and EE12, with increasing dose of pDNA (0.1–0.4 μg per well). The gold standard gene delivery reagent Lipofectamine® 2000 was assayed in parallel for comparison purpose. In order to distinguish the intrinsic cytotoxic effect of the in situ generated APLs from that resulting from TRAIL expression, pCMV-Gluc was assayed in parallel to pUNO1-hTRAIL. Using pCMV-Gluc, the observed cytotoxicity was assumed to result only from the APL antiproliferative activity, whereas results obtained with pUNO1-hTRAIL are a combination of TRAIL activity and APL antiproliferative effect. […] Though the temptation is to take it as an indicator that functional TRAIL was produced, the difference found was not always statistically significant. The activity profile of the three pro-APLs varied according to the cell line. […]
Figure 8 Antiproliferative effect of lipoplexes prepared from ME12 (A), PE12 (B), EE12 (C), and the two DNA plasmids pCMV-Gluc (light bars) and pUNO1-hTRAIL (dark bars), on the three cell lines. […] Lipofectamine®-based lipoplexes (0.1 μg plasmid/well) were prepared according to the optimized experimental conditions determined following the supplier's instructions. Cell viability was measured by the MTT assay. Basal mitochondrial activity measured in untreated cells is set at 100%. […]

[2] = set-up: method as in Gaillard et al., 2019; details: ref Gaillard et al., 2019, cited from earlier work
[3] = set-up: method as in Gaillard et al., 2019; details: pyrene fluorescence; ref Gaillard et al., 2019; cited from earlier work
A549 cells [4] = system: A549 cells; set-up: method as in Gaillard et al., 2019; details: A549, 24 h at 37°C, MTT assay; ref Gaillard et al., 2019; cited from earlier work
H292 cells = system: H292 cells; set-up: method as in Gaillard et al., 2019; details: H292, 24 h at 37°C, MTT assay; ref Gaillard et al., 2019; cited from earlier work
16HBE cells = system: 16HBE cells; set-up: method as in Gaillard et al., 2019; details: 24 h at 37°C, MTT assay, ref Gaillard et al., 2019; cited from earlier work
[5] = set-up: method as in Gaillard et al., 2019; details: lipoplexes with pCMV-Gluc, N/P 3, 1 molar equivalent of DOPE; ref Gaillard et al., 2019; cited from earlier work
sheep RBC = details: sheep RBC, 37°C, ref Gaillard et al., 2019, cited from earlier work

In the case of `CCCCCCCC/C=C\CCCCCCCCCCCCOP(=O)(OCCC[N+](C)(C)C)OCOC(=O)CCCCCCCCCCC` (stereo not shown) [EE12], the TRAIL-induced cell death (A549 cells [1]) is listed as 15-17%, the “H120 (hydrolysis rate after a 120-h incubation period)” value ([2]; pH 4.5) is listed as 2% and the “H120 (hydrolysis rate after a 120-h incubation period)” value ([2]; pH 7.4) is listed as 17%. The “CMC (APLs) / CAC (pro-APLs)” value [3] was 0.6 ± 0.2 µM, the IC50 (A549 cells [4]) was 151 ± 42 µM and the IC50 (H292 cells) was 125 ± 26 µM. For the same molecule, the IC50 (16HBE cells) was 144 ± 66 µM, the “Particle size of lipoplexes” value [5] was 141 ± 5 nm and the “HA200 (hemolytic activity at 200 μM)” value (sheep RBC; 1 h) was < 1%. For the same molecule, the “HA200 (hemolytic activity at 200 μM)” value (sheep RBC; 24 h) was 18.6 ± 1.5%.
